Assay results: the NIST ThermoML archive (doi:10.1016/j.tca.2006.04.016)
± gives the expanded uncertainty stated by the source.

Experiment: xn = mol fraction of the nth substance listed
Details: 101 kPa, Liquid, Vibrating tube method

CN(C)CCCN [N,N-dimethyl-1,3-propanediamine] + O
mass density [kg/m3]
Details | 283.15 K | 288.15 K | 293.15 K | 298.15 K | 303.15 K | 308.15 K | 313.15 K | 318.15 K
x2 = 0 | 825.96 ± 0.13 | 821.56 ± 0.14 | 817.14 ± 0.14 | 812.72 ± 0.14 | 808.28 ± 0.14 | 803.83 ± 0.15 | 799.38 ± 0.15 | 794.9 ± 0.15
x2 = 0.0403 | 829.01 ± 0.13 | 824.62 ± 0.14 | 820.21 ± 0.14 | 815.8 ± 0.14 | 811.37 ± 0.14 | 806.92 ± 0.14 | 802.47 ± 0.15 | 797.99 ± 0.15
x2 = 0.0811 | 832.1 ± 0.14 | 827.73 ± 0.14 | 823.33 ± 0.14 | 818.92 ± 0.14 | 814.5 ± 0.14 | 810.07 ± 0.15 | 805.61 ± 0.15 | 801.14 ± 0.15
x2 = 0.1198 | 835.2 ± 0.14 | 830.84 ± 0.14 | 826.46 ± 0.14 | 822.07 ± 0.15 | 817.65 ± 0.15 | 813.22 ± 0.15 | 808.78 ± 0.15 | 804.31 ± 0.15
x2 = 0.16 | 838.61 ± 0.15 | 834.27 ± 0.15 | 829.9 ± 0.15 | 825.51 ± 0.15 | 821.11 ± 0.15 | 816.69 ± 0.16 | 812.24 ± 0.16 | 807.78 ± 0.16
x2 = 0.1996 | 842.14 ± 0.15 | 837.81 ± 0.16 | 833.45 ± 0.16 | 829.08 ± 0.16 | 824.69 ± 0.16 | 820.27 ± 0.16 | 815.84 ± 0.16 | 811.38 ± 0.17
x2 = 0.2498 | 846.96 ± 0.17 | 842.65 ± 0.17 | 838.31 ± 0.17 | 833.95 ± 0.17 | 829.57 ± 0.17 | 825.17 ± 0.17 | 820.74 ± 0.17 | 816.29 ± 0.18
x2 = 0.2998 | 852.16 ± 0.18 | 847.87 ± 0.18 | 843.54 ± 0.18 | 839.2 ± 0.18 | 834.84 ± 0.19 | 830.45 ± 0.19 | 826.04 ± 0.19 | 821.59 ± 0.19
x2 = 0.3499 | 857.74 ± 0.2 | 853.47 ± 0.2 | 849.16 ± 0.2 | 844.84 ± 0.2 | 840.49 ± 0.2 | 836.11 ± 0.2 | 831.71 ± 0.2 | 827.27 ± 0.2
x2 = 0.3997 | 863.92 ± 0.22 | 859.67 ± 0.22 | 855.38 ± 0.22 | 851.07 ± 0.22 | 846.73 ± 0.22 | 842.37 ± 0.22 | 837.97 ± 0.22 | 833.54 ± 0.22
x2 = 0.4501 | 870.78 ± 0.24 | 866.55 ± 0.24 | 862.28 ± 0.24 | 857.98 ± 0.24 | 853.66 ± 0.24 | 849.3 ± 0.24 | 844.91 ± 0.24 | 840.49 ± 0.24
x2 = 0.4998 | 878.37 ± 0.26 | 874.15 ± 0.26 | 869.89 ± 0.26 | 865.61 ± 0.26 | 861.29 ± 0.26 | 856.94 ± 0.26 | 852.56 ± 0.26 | 848.14 ± 0.26
x2 = 0.5501 | 886.96 ± 0.28 | 882.76 ± 0.28 | 878.51 ± 0.28 | 874.24 ± 0.28 | 869.93 ± 0.28 | 865.59 ± 0.28 | 861.21 ± 0.28 | 856.79 ± 0.28
x2 = 0.5999 | 896.46 ± 0.3 | 892.27 ± 0.3 | 888.05 ± 0.3 | 883.78 ± 0.3 | 879.48 ± 0.3 | 875.14 ± 0.3 | 870.76 ± 0.3 | –
x2 = 0.6498 | 907.17 ± 0.32 | 902.99 ± 0.32 | 898.77 ± 0.32 | 894.51 ± 0.32 | 890.21 ± 0.32 | 885.88 ± 0.32 | 881.5 ± 0.32 | –
x2 = 0.7 | 919.35 ± 0.35 | 915.19 ± 0.35 | 910.98 ± 0.34 | 906.73 ± 0.34 | 902.43 ± 0.34 | 898.1 ± 0.34 | 893.72 ± 0.34 | –
x2 = 0.7499 | 932.79 ± 0.37 | 928.64 ± 0.37 | 924.44 ± 0.37 | 920.2 ± 0.37 | 915.92 ± 0.37 | 911.6 ± 0.36 | 907.23 ± 0.36 | –
x2 = 0.8 | 947.49 ± 0.4 | 943.36 ± 0.39 | 939.18 ± 0.39 | 934.96 ± 0.39 | 930.71 ± 0.39 | 926.42 ± 0.39 | 922.09 ± 0.39 | –
x2 = 0.84 | 959.97 ± 0.42 | 955.86 ± 0.41 | 951.72 ± 0.41 | 947.55 ± 0.41 | 943.35 ± 0.41 | 939.13 ± 0.41 | 934.86 ± 0.41 | –
x2 = 0.8799 | 972.18 ± 0.44 | 968.2 ± 0.44 | 964.2 ± 0.44 | 960.18 ± 0.43 | 956.14 ± 0.43 | 952.08 ± 0.43 | 947.99 ± 0.43 | –
x2 = 0.9 | 977.57 ± 0.45 | 973.8 ± 0.45 | 970 ± 0.45 | 966.18 ± 0.45 | 962.33 ± 0.44 | 958.45 ± 0.44 | 954.54 ± 0.44 | –
x2 = 0.92 | 981.9 ± 0.46 | 978.55 ± 0.46 | 975.13 ± 0.46 | 971.67 ± 0.46 | 968.16 ± 0.46 | 964.59 ± 0.45 | 960.96 ± 0.45 | –
x2 = 0.94 | 984.99 ± 0.47 | 982.31 ± 0.47 | 979.51 ± 0.47 | 976.61 ± 0.47 | 973.6 ± 0.47 | 970.49 ± 0.47 | 967.29 ± 0.46 | –
x2 = 0.9597 | 987.53 ± 0.48 | 985.64 ± 0.48 | 983.57 ± 0.48 | 981.34 ± 0.48 | 978.95 ± 0.48 | 976.4 ± 0.48 | 973.72 ± 0.48 | –
x2 = 0.975 | 990.28 ± 0.49 | 988.99 ± 0.49 | 987.47 ± 0.49 | 985.74 ± 0.49 | 983.82 ± 0.49 | 981.71 ± 0.49 | 979.42 ± 0.49 | –
x2 = 0.99 | 994.84 ± 0.5 | 994.04 ± 0.5 | 992.95 ± 0.5 | 991.63 ± 0.5 | 990.07 ± 0.5 | 988.31 ± 0.5 | 986.35 ± 0.5 | –
